Results published in PMC2935290 (Journal of immunology (Baltimore, Md. : 1950), 2010).
Positions count from the first letter of the chain named. Where a SMILES comes first, the peptide text is derived from it. Where no end group is shown, it is not given here.

Columns and labels:
HLA-DPB1*0201 = target: T1, HLA-DPB1*0201 (Homo sapiens, UniProt P04440+P20036, A65V/A84D/A85E/K98E); test: biochemical; assay type: binding
T1 sequence (P04440 30-258 A65V/A84D/A85E/K98E): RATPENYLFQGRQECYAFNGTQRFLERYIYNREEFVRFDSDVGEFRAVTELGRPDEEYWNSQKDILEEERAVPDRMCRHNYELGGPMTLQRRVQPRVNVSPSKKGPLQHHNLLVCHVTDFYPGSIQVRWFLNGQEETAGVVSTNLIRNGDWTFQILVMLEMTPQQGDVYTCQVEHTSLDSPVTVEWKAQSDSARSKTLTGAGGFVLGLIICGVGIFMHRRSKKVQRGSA
T1 sequence (P20036 29-260): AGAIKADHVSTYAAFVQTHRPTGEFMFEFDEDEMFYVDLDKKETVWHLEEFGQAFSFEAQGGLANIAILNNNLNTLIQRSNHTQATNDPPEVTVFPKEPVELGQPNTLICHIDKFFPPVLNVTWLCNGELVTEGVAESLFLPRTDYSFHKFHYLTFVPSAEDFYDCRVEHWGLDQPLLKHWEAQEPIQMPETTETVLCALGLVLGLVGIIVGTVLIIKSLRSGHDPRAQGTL

HLA-DPB1*0402 = target: T2, HLA-DPB1*0402 (Homo sapiens, UniProt P04440+P20036, A65V/A84D/A85E/L207M); test: biochemical; assay type: binding
T2 sequence (P04440 30-258 A65V/A84D/A85E): T1 sequence (P04440 30-258 A65V/A84D/A85E/K98E) with E69K
T2 sequence (P20036 29-260): T1 sequence (P20036 29-260)

Row | Molecule | IC50 (HLA-DPB1*0201) | IC50 (HLA-DPB1*0402)
1 | DKKETVWHLE | 0.093 µM | 3.74 µM
2 | CSCC[C@H](NC(=O)[C@H](CCCNC(=N)N)NC(=O)[C@H](CCSC)NC(=O)[C@H](CCCCN)NC(=O)[C@H](CO)NC(=O)[C@@H](NC(=O)[C@@H]1CCCN1C(=O)[C@@H](N)CCCCN)C(C)C)C(=O)N[C@@H](C)C(=O)N[C@H](C(=O)N1CCC[C@H]1C(=O)N[C@@H](CC(C)C)C(=O)N[C@@H](CC(C)C)C(=O)N[C@@H](CCSC)C(=O)N[C@@H](CCC(N)=O)C(=O)N[C@@H](C)C(=O)N[C@@H](CC(C)C)C(=O)N1CCC[C@H]1C(=O)O)[C@@H](C)O | 0.161 µM | 0.138 µM
3 | CC[C@H](C)[C@H](NC(=O)[C@@H](N)Cc1c[nH]c2ccccc12)C(=O)N[C@H](C(=O)N[C@@H](CCC(N)=O)C(=O)N[C@@H](CS)C(=O)N[C@@H](Cc1ccccc1)C(=O)N[C@@H](CC(C)C)C(=O)N1CCC[C@H]1C(=O)N[C@H](C(=O)N[C@@H](Cc1ccccc1)C(=O)N[C@@H](CC(C)C)C(=O)N[C@@H](C)C(=O)N[C@@H](CCC(N)=O)C(=O)N1CCC[C@H]1C(=O)N1CCC[C@H]1C(=O)N[C@@H](CO)C(=O)NCC(=O)N[C@@H](CCC(N)=O)C(=O)N[C@@H](CCCNC(=N)N)C(=O)N[C@@H](CCCNC(=N)N)C(=O)O)C(C)C)[C@@H](C)O |  | 0.025 µM
4 | CC[C@H](C)[C@H](NC(=O)[C@H](CS)NC(=O)[C@@H]1CCCN1C(=O)[C@H](CCC(=O)O)NC(=O)[C@H](CO)NC(=O)CNC(=O)[C@@H](N)Cc1c[nH]cn1)C(=O)N[C@H](C(=O)N[C@@H](Cc1c[nH]cn1)C(=O)N[C@@H](CCCNC(=N)N)C(=O)NCC(=O)N[C@@H](CCCCN)C(=O)N1CCC[C@H]1C(=O)N[C@@H](Cc1ccccc1)C(=O)N[C@@H](CCC(N)=O)C(=O)N[C@@H](CC(C)C)C(=O)N[C@@H](CCC(=O)O)C(=O)N[C@@H](C)C(=O)N[C@H](C(=O)O)C(C)C)[C@@H](C)CC | 0.82 µM | 1.41 µM
5 | CC[C@H](C)[C@H](NC(=O)[C@H](C)NC(=O)[C@H](CC(=O)O)NC(=O)[C@H](CCCCN)NC(=O)[C@H](CC(C)C)NC(=O)[C@@H](NC(=O)[C@H](CCC(=O)O)NC(=O)[C@H](C)NC(=O)[C@H](Cc1ccccc1)NC(=O)[C@@H](NC(=O)[C@H](Cc1c[nH]cn1)NC(=O)[C@@H](NC(=O)[C@H](CCC(N)=O)NC(=O)[C@H](CC(C)C)NC(=O)[C@H](Cc1ccccc1)NC(=O)[C@@H](N)C(C)C)[C@@H](C)O)[C@@H](C)CC)C(C)C)C(=O)N[C@@H](CCCCN)C(=O)N[C@@H](CC(=O)O)C(=O)N[C@@H](CC(C)C)C(=O)O | 0.032 µM | 0.0056 µM
6 | LTGYSLFQKEKMVLN | 0.18 µM | 
7 | CC(C)C[C@H](NC(=O)[C@H](CO)NC(=O)[C@H](CCC(N)=O)NC(=O)[C@@H](N)CC(C)C)C(=O)N[C@H](C(=O)N[C@@H](CO)C(=O)N[C@@H](CCC(N)=O)C(=O)N[C@@H](Cc1ccc(O)cc1)C(=O)N[C@@H](Cc1ccccc1)C(=O)N[C@@H](CCC(N)=O)C(=O)N[C@H](C(=O)N[C@H](C(=O)N[C@@H](C)C(=O)N[C@@H](CC(=O)O)C(=O)N[C@@H](Cc1ccc(O)cc1)C(=O)O)C(C)C)[C@@H](C)O)C(C)C | 0.0027 µM | 
8 | CC(C)C[C@H](NC(=O)[C@@H](NC(=O)[C@H](Cc1c[nH]cn1)NC(=O)[C@H](CO)NC(=O)[C@H](Cc1ccccc1)NC(=O)[C@H](CO)NC(=O)CNC(=O)CNC(=O)[C@H](CC(C)C)NC(=O)[C@H](Cc1ccc(O)cc1)NC(=O)[C@H](CCCNC(=N)N)NC(=O)[C@H](Cc1ccc(O)cc1)NC(=O)[C@H](CC(C)C)NC(=O)[C@@H]1CCCN1)C(C)C)C(=O)O | 0.013 µM | 0.149 µM
9 | CC[C@H](C)[C@H](NC(=O)[C@H](CC(=O)O)NC(=O)[C@@H](N)CCCCN)C(=O)N[C@@H](CC(C)C)C(=O)N[C@@H](CCC(=O)O)C(=O)N[C@@H](CC(=O)O)C(=O)N[C@@H](CCC(=O)O)C(=O)N[C@@H](CCCNC(=N)N)C(=O)N[C@@H](C)C(=O)N[C@@H](C)C(=O)N[C@H](C(=O)N[C@@H](CC(=O)O)C(=O)N[C@H](C(=O)N[C@@H](Cc1ccc(O)cc1)C(=O)N[C@@H](CS)C(=O)O)[C@@H](C)O)C(C)C | 10.5 µM | 4.2 µM
10 | CC[C@H](C)[C@H](NC(=O)[C@H](CCC(N)=O)NC(=O)[C@H](CS)NC(=O)[C@H](Cc1ccc(O)cc1)NC(=O)[C@H](CC(N)=O)NC(=O)[C@H](CO)NC(=O)[C@@H](NC(=O)CNC(=O)[C@H](Cc1ccccc1)NC(=O)[C@H](CCCNC(=N)N)NC(=O)[C@H](CCC(N)=O)NC(=O)[C@H](C)NC(=O)[C@@H](N)CC(N)=O)[C@@H](C)CC)C(=O)O | 0.0078 µM | 0.365 µM
11 | CC(C)C[C@H](NC(=O)[C@@H](NC(=O)[C@H](CC(N)=O)NC(=O)[C@H](Cc1ccccc1)NC(=O)[C@H](CC(C)C)NC(=O)[C@H](CO)NC(=O)[C@H](Cc1c[nH]c2ccccc12)NC(=O)[C@@H](NC(=O)[C@@H](NC(=O)[C@H](Cc1c[nH]cn1)NC(=O)[C@H](CC(=O)O)NC(=O)[C@@H]1CCCN1C(=O)[C@@H](N)C(C)C)C(C)C)C(C)C)[C@@H](C)O)C(=O)O | 0.0011 µM | 0.0084 µM
12 | RELWWVFYAAD | 0.291 µM | 
13 | CC[C@H](C)[C@H](NC(=O)[C@H](Cc1c[nH]c2ccccc12)NC(=O)[C@H](CCSC)NC(=O)[C@H](CC(C)C)NC(=O)[C@H](CC(C)C)NC(=O)[C@@H](N)CO)C(=O)N[C@H](C(=O)N[C@@H](CCC(N)=O)C(=O)N[C@@H](CS)C(=O)N[C@@H](Cc1ccccc1)C(=O)N[C@@H](CC(C)C)C(=O)N1CCC[C@H]1C(=O)N[C@H](C(=O)O)C(C)C)[C@@H](C)O | 0.0013 µM | 0.0061 µM
14 | RSQPGLCNMYKDSHHPARTA | 4.59 µM | 7.78 µM
15 | DTLRSYYADWYQQKPG | 0.188 µM | 1.55 µM
16 | SDVGEFRAVTELG | 0.619 µM | 4.05 µM
17 | FDRSTKVIDFHYPNE |  | 30.4 µM
18 | CDGERPTLAFLQDVM | 32.8 µM | 15.2 µM
19 | CC[C@H](C)[C@H](NC(=O)[C@H](Cc1ccc(O)cc1)NC(=O)[C@H](CCC(=O)O)NC(=O)[C@H](Cc1ccccc1)NC(=O)[C@H](C)NC(=O)[C@H](CCC(N)=O)NC(=O)[C@H](CO)NC(=O)[C@@H]1CCCN1C(=O)[C@@H](N)CC(C)C)C(=O)N[C@@H](CC(C)C)C(=O)N[C@@H](Cc1ccc(O)cc1)C(=O)N[C@@H](CC(N)=O)C(=O)N[C@@H](CCCCN)C(=O)NCC(=O)O | 0.001 µM | 0.0096 µM
20 | INEPTAAAIAYGLDR | 4.15 µM | 11.6 µM
21 | FFLLTRILTIPQSLD | 0.0003 µM | 0.0012 µM
22 | CC[C@H](C)[C@H](NC(=O)[C@H](CO)NC(=O)[C@H](Cc1ccc(O)cc1)NC(=O)[C@H](C)NC(=O)[C@H](CS)NC(=O)[C@H](CC(C)C)NC(=O)[C@H](CC(C)C)NC(=O)[C@H](CS)NC(=O)[C@@H](N)CC(=O)O)C(=O)N[C@@H](CCC(=O)O)C(=O)N[C@@H](Cc1ccccc1)C(=O)NCC(=O)N[C@H](C(=O)N[C@@H](CC(N)=O)C(=O)N[C@H](C(=O)N[C@@H](CO)C(=O)N[C@@H](CCCCN)C(=O)N[C@@H](CCC(=O)O)C(=O)N[C@@H](Cc1c[nH]cn1)C(=O)N[C@@H](CC(=O)O)C(=O)O)[C@@H](C)CC)[C@@H](C)O (H-DCLLCAYSIEFGTNISKEHD-OH) | 0.343 µM | 0.232 µM
23 | CC[C@H](C)[C@H](NC(=O)[C@H](C)NC(=O)[C@H](CS)NC(=O)[C@H](C)NC(=O)[C@H](CC(C)C)NC(=O)[C@@H](NC(=O)CNC(=O)[C@H](CC(=O)O)NC(=O)[C@H](CC(=O)O)NC(=O)CNC(=O)[C@@H](N)CCSC)C(C)C)C(=O)N[C@@H](C)C(=O)N[C@H](C(=O)N[C@@H](Cc1c[nH]cn1)C(=O)N[C@@H](C)C(=O)N[C@@H](CCCCN)C(=O)N[C@H](C(=O)N[C@@H](CCCNC(=N)N)C(=O)N[C@@H](CC(=O)O)C(=O)O)[C@@H](C)CC)[C@@H](C)O | 8.79 µM | 
24 | CC[C@H](C)[C@H](NC(=O)[C@H](CO)NC(=O)[C@H](CCC(=O)O)NC(=O)[C@H](C)NC(=O)[C@H](CCC(=O)O)NC(=O)[C@H](CCSC)NC(=O)[C@H](CCC(N)=O)NC(=O)[C@H](CCCCN)NC(=O)[C@@H](NC(=O)[C@H](CC(=O)O)NC(=O)[C@H](CCC(=O)O)NC(=O)[C@H](CCSC)NC(=O)[C@H](C)NC(=O)[C@H](CCC(N)=O)NC(=O)[C@H](CC(=O)O)NC(=O)[C@H](CCC(=O)O)NC(=O)[C@@H](N)[C@@H](C)O)[C@@H](C)CC)C(=O)N[C@@H](CO)C(=O)O | 4.77 µM | 2.47 µM
25 | CSCC[C@H](NC(=O)[C@H](CCSC)NC(=O)[C@@H](N)CCCNC(=N)N)C(=O)N[C@@H](CCC(=O)O)C(=O)N[C@@H](Cc1ccc(O)cc1)C(=O)NCC(=O)N[C@H](C(=O)N[C@H](C(=O)N[C@@H](CCSC)C(=O)N[C@H](C(=O)N[C@@H](CO)C(=O)N[C@@H](Cc1ccc(O)cc1)C(=O)N[C@@H](CCC(N)=O)C(=O)N1CCC[C@H]1C(=O)N[C@@H](CC(C)C)C(=O)O)C(C)C)[C@@H](C)O)[C@@H](C)O | 0.725 µM | 1.31 µM
26 | TPTEKDEYCARVNH |  | 14 µM
27 | DVKFPGGGQIVGGVYLLPRR |  | 0.033 µM
